In ChEMBL document CHEMBL5620367, “Discovery of new tetrahydroisoquinolines as potent and selective LSD1 inhibitors for the treatment of MLL-rearranged leukemia” (Eur J Med Chem, 2023):
pIC50: −log10 of the molar value. Calls of active or inactive are those of the source. The rule behind the calls is not given here.

Experiments:
[1] = biological target: T1, MAO-A (amine oxidase [flavin-containing] A) (Homo sapiens, UniProt P21397); experiment: Inhibition of N-terminal FLAG-tagged recombinant human MAO-A expressed in baculovirus infected Sf9 cells upto 10 uM preincubated for 15 mins followed by addition of luciferin derivative substrate measured after 1 hr by Luciferase Glo assay relative to control; conditions: probe luciferin derivative substrate, time 75 min
T1 sequence (P21397 whole entry): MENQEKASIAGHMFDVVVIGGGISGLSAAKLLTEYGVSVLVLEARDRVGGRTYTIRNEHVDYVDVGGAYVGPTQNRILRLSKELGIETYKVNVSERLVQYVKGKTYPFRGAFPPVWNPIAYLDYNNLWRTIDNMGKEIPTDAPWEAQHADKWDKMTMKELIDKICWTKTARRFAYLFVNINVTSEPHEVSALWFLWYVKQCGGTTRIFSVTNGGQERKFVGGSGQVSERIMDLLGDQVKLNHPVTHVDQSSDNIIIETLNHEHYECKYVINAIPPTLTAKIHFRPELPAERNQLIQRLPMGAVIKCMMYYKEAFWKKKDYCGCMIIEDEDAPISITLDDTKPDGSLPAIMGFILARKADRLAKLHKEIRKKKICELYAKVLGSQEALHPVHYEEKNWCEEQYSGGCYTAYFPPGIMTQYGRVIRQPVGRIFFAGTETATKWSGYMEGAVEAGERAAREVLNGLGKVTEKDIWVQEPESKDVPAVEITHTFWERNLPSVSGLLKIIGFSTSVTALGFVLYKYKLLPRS

[2] = biological target: T2, MAO-B (amine oxidase [flavin-containing] B) (Homo sapiens, UniProt P27338); experiment: Inhibition of N-terminal FLAG-tagged recombinant human MAO-B expressed in baculovirus infected Sf9 cells upto 10 uM preincubated for 15 mins followed by addition of luciferin derivative substrate measured after 1 hr by Luciferase Glo assay relative to control; conditions: probe luciferin derivative substrate, time 75 min
T2 sequence (P27338 whole entry): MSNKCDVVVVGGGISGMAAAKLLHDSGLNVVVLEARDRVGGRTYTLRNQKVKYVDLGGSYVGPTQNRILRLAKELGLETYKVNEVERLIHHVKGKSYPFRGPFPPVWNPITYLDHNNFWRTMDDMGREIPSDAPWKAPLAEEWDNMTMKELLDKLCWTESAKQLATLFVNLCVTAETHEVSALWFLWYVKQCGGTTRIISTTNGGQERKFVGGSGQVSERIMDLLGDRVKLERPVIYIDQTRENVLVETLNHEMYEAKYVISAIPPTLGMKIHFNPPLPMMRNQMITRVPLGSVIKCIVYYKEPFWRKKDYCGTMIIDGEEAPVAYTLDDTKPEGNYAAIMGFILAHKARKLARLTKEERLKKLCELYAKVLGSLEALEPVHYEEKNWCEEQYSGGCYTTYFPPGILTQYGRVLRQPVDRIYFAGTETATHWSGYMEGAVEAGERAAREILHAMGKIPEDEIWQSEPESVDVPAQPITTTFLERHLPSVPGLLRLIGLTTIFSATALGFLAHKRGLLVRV

MOLM-13 [3] = experiment: Cytotoxicity against human MOLM-13 cells incubated for 7 days by CCK8 assay; conditions: MOLM-13, 168 h
MV4-11 [4] = experiment: Cytotoxicity against human MV4-11 cells incubated for 7 days by CCK8 assay; conditions: MV4-11, 168 h
MV4-11 [5] = experiment: Anti-cancer activity against human MV4-11 cells assessed as reduction in HoxA9 mRNA level upto 100 uM by qRT-PCR analysis; assay type: functional, cell-based
MV4-11 [6] = experiment: Anti-cancer activity against human MV4-11 cells assessed as reduction in Meis1 mRNA level upto 100 uM by qRT-PCR analysis; assay type: functional, cell-based
MOLM-13 [7] = experiment: Anti-cancer activity against human MOLM-13 cells assessed as reduction in HoxA9 mRNA level upto 100 uM by qRT-PCR analysis relative to control; assay type: functional; parameters: scale not given: the % may be the effect or the level left; conditions: up to 100 µM
MOLM-13 [8] = experiment: Anti-cancer activity against human MOLM-13 cells assessed as reduction in Meis1 mRNA level upto 100 uM by qRT-PCR analysis relative to control; assay type: functional; parameters: scale not given: the % may be the effect or the level left; conditions: up to 100 µM
MOLM-13 [9] = experiment: Induction of cell differentiation in human MOLM-13 cells assessed as increase in CD11b level upto 400 uM incubated for 7 days […]; assay type: functional, cell-based; conditions: time 7.0 day
MV4-11 [10] = experiment: Induction of cell differentiation in human MV4-11 cells assessed as increase in CD11b level upto 400 uM incubated for 7 days […]; assay type: functional, cell-based; conditions: time 7.0 day
MOLM-13 [11] = experiment: Induction of cell differentiation in human MOLM-13 cells assessed as CD11b level at 10 uM incubated for 3 days by Annexin V staining based flow cytometry (reference value: 13.77 %); assay type: functional; conditions: time 3 day
MOLM-13 [12] = experiment: Induction of cell differentiation in human MOLM-13 cells assessed as CD11b level at 30 uM incubated for 3 days by Annexin V staining based flow cytometry (reference value: 13.77 %); assay type: functional; conditions: time 3 day
MOLM-13 [13] = experiment: Induction of cell differentiation in human MOLM-13 cells assessed as CD11b level at 100 uM incubated for 3 days by Annexin V staining based flow cytometry (reference value: 13.77 %); assay type: functional; conditions: time 3 day
MV4-11 [14] = experiment: Induction of cell differentiation in human MV4-11 cells assessed as CD11b level at 10 uM incubated for 3 days by Annexin V staining based flow cytometry (reference value: 8.58 %); assay type: functional; conditions: time 3 day
MV4-11 [15] = experiment: Induction of cell differentiation in human MV4-11 cells assessed as CD11b level at 30 uM incubated for 3 days by Annexin V staining based flow cytometry (reference value: 8.58 %); assay type: functional; conditions: time 3 day
MV4-11 [16] = experiment: Induction of cell differentiation in human MV4-11 cells assessed as CD11b level at 100 uM incubated for 3 days by Annexin V staining based flow cytometry (reference value: 8.58 %); assay type: functional; conditions: time 3 day
MOLM-13 [17] = experiment: Induction of cell differentiation in human MOLM-13 cells assessed as increase in CD14 level upto 100 uM incubated for 3 days by Annexin V staining based flow cytometry; assay type: functional; conditions: time 3.0 day
MV4-11 [18] = experiment: Antitumor activity against human MV4-11 cells xenografted in NOD-SCID mouse assessed as decrease in leukemic cells in blood at 50 mg/kg, sc measured after 33 days relative to control; assay type: functional; parameters: scale not given: the % may be the effect or the level left; conditions: time 33 day
MV4-11 [19] = experiment: Induction of cell differentiation in human MV4-11 cells assessed as increase in CD14 level upto 100 uM incubated for 3 days by Annexin V staining based flow cytometry; assay type: functional; conditions: time 3.0 day
MOLM-13 [20] = experiment: Induction of apoptosis in human MOLM-13 cells assessed as viable cells at 10 uM incubated for 3 days by Annexin V staining based flow cytometry (reference value: 90.54 %); assay type: functional; conditions: MOLM-13, 72 h, time 3 day, read-out: Activity
MOLM-13 [21] = experiment: Induction of apoptosis in human MOLM-13 cells assessed as early apoptotic cells at 10 uM incubated for 3 days by Annexin V staining based flow cytometry (reference value: 4.94 %); assay type: functional; conditions: time 3 day
MOLM-13 [22] = experiment: Induction of apoptosis in human MOLM-13 cells assessed as late apoptotic cells at 10 uM incubated for 3 days by Annexin V staining based flow cytometry (reference value: 3.29 %); assay type: functional; conditions: time 3 day
MOLM-13 [23] = experiment: Induction of apoptosis in human MOLM-13 cells assessed as necrotic cells at 10 uM incubated for 3 days by Annexin V staining based flow cytometry (reference value: 1.23 %); assay type: functional; conditions: time 3 day
MOLM-13 [24] = experiment: Induction of apoptosis in human MOLM-13 cells assessed as viable cells at 30 uM incubated for 3 days by Annexin V staining based flow cytometry (reference value: 90.54 %); assay type: functional; conditions: MOLM-13, 72 h, time 3 day, read-out: Activity
MOLM-13 [25] = experiment: Induction of apoptosis in human MOLM-13 cells assessed as early apoptotic cells at 30 uM incubated for 3 days by Annexin V staining based flow cytometry (reference value: 4.94 %); assay type: functional; conditions: time 3 day
MOLM-13 [26] = experiment: Induction of apoptosis in human MOLM-13 cells assessed as late apoptotic cells at 30 uM incubated for 3 days by Annexin V staining based flow cytometry (reference value: 3.29 %); assay type: functional; conditions: time 3 day
MOLM-13 [27] = experiment: Induction of apoptosis in human MOLM-13 cells assessed as necrotic cells at 30 uM incubated for 3 days by Annexin V staining based flow cytometry (reference value: 1.23 %); assay type: functional; conditions: time 3 day
MOLM-13 [28] = experiment: Induction of apoptosis in human MOLM-13 cells assessed as viable cells at 100 uM incubated for 3 days by Annexin V staining based flow cytometry (reference value: 90.54 %); assay type: functional; conditions: MOLM-13, 72 h, time 3 day, read-out: Activity

For `O=C(O)C(F)(F)F.O=[N+]([O-])c1ccc(C2NCCc3cc(O)c(O)cc32)cc1` (stereo not drawn), the inhibition at 1 h, up to 10 µM [1] was < 30%, the inhibition at 1 h, up to 10 µM [2] was < 30% and the pIC50 (MOLM-13 [3]) was 4.08. The pIC50 (MV4-11 [4]) was 4.38, the Activity (MV4-11 [5]) was “Active” and the Activity (MV4-11 [6]) was “Active”. The Activity (MOLM-13 [7]) was ~70%, the Activity (MOLM-13 [8]) was ~60% and the Activity (MOLM-13 [9]) was “Active”. For the same compound, the Activity (MV4-11 [10]) was “Active”, the Activity (MOLM-13 [11]) was 29.35% and the Activity (MOLM-13 [12]) was 90.6%. For the same compound, the Activity (MOLM-13 [13]) was 93.75%, the Activity (MV4-11 [14]) was 14.39% and the Activity (MV4-11 [15]) was 34.78%. The Activity (MV4-11 [16]) was 69.19%, the Activity (MOLM-13 [17]) was “Active” and the Activity (MV4-11 [18]) was 35%. For the same compound, the Activity (MV4-11 [19]) was “Active”, the viability at 10 µM (MOLM-13 [20]) was 76.6% and the Activity (MOLM-13 [21]) was 7.17%. The Activity (MOLM-13 [22]) was 9.88%, the Activity (MOLM-13 [23]) was 6.32% and the viability at 30 µM (MOLM-13 [24]) was 61.5%. For the same compound, the Activity (MOLM-13 [25]) was 7.55%, the Activity (MOLM-13 [26]) was 15.99% and the Activity (MOLM-13 [27]) was 14.95%. The viability at 100 µM (MOLM-13 [28]) was 56%.
